Laboratory results from patent US20230288433A1, “DETECTION OF PHOSPHOINOSITIDES IN BLOOD CELLS AS A BIOMARKER FOR ALPHA SYNUCLEIN ASSOCIATED PATHOLOGIES AND A METHOD OF TREATMENT OF PARKINSON'S DISEASE AND THE RELATED NEURODEGENERATIONS” (YISSUM RESEARCH DEVELOPMENT COMPANY OF THE HEBREW …, priority 2021, published 2023).

Tests used:
Type in all cases: cell-based
α-Syn = α-Syn expression by qPCR in Tet-on inducible SH-SY5Y cells; conditions: with versus without doxycycline for 72 hours
Description: FIGS. 4A-4J include micrographs and graphs showing that α-Syn effect to elongate axons and collaterals is mediated through PI4,5P2. (4A) PI4,5P2 levels determined by FACS, in HEK 293T cells, following 48 hours from cell transfection with α-Syn and/or Sj-1 phosphatase, as indicated. Mean±SD of two independent experiments, n>3,000 cells in each treatment; P<0.05, one-way ANOVA. (4B) PI4,5P2 levels determined by FACS in HEK 293T cells transfected with α-Syn and/or PIPKIγ as indicated. Mean±SD of two independent experiments, n>3,000 cells in each treatment; P<0.05, one-way ANOVA. […] GFP signal was captured by direct fluorescence. […] (4E) Total length of collaterals per axon (in μm); and (4F) PI4,5P2 levels within the axon and its collaterals (per axon area) quantified by Fiji program. […] Western blot showing mCherry Nir2 signal detected with anti Nir2 ab (Abcam). PI4,5P2 levels determined by FACS. […] PI4,5P2 levels determined by FACS. […] (4I) Quantitative PCR (qPCR) detection of α-Syn following its induced expression in SH-SYSY cells without and with the addition of doxycycline for 72 hours. α-Syn mRNA levels normalized to the levels of G6PD gene detected in the same sample. (4J) Quantitative detection of NIR2 expression by qPCR in these cells. […]

SH-SY5Y cells [1] = assay: PI4,5P2 levels by FACS in Tet-on inducible α-Syn SH-SY5Y cells
Description: Analysis was performed as previously described with some modifications. Cells were suspended and washed in clear DMEM; followed by 20 minutes fixation in 2% (v/w) paraformaldehyde at 4° C.; and permeabilization in 0.2% saponin in 1% BSA (w/v) for 15 minutes at 4° C. Cells were then incubated with anti α-Syn antibody (MJFR1, 1:2,000) and anti PI4,5P2 antibody (1:200, see Table 2) for 90 minutes at 4° C. with gentle rolling; washed and probed with the respective secondary antibody for 30 minutes at room temperature. FACS analysis in SK-mel2 cells was performed 7-14 days following viral transduction. During this time effective α-Syn knockdown was confirmed using rt-PCR and Western blotting. HEK 293T cells were analyzed by FACS forty-eight hours from transfection. Analyses were performed using BD LSRFortessa Cell Analyzer, equipped with 5 lasers (355, 405, 488, 561 and 640 nm) and the FLOWJO, LLC software. Mock-GFP, Sj-1 or PIPKIγ expression were directly detected at 488 nm based on a GFP-tag. […] A total of 2,000-4,000 gated cells were counted in each experiment unless indicated differently.
To test the mechanism through which α-Syn increases cellular PI4,5P2 levels, the inventors tested the potential involvement of Nir2-expression. […] 72 hours post DNA transfection, PI4,5P2 levels were determined by FACS. […] PI4,5P2 levels were determined by FACS following 3 days of incubation with doxycycline. […]

SH-SY5Y cells [2] = assay: 568-Tf endocytosis by ICC in Tet-on inducible α-Syn SH-SY5Y cells; conditions: doxycycline 72 hours; cells not induced set at 100%

C[C@H]1c2cccc(O)c2C(=O)C2=C(O)[C@]3(O)C(=O)C(C(N)=O)=C(O)[C@@H](N(C)C)[C@@H]3[C@@H](O)[C@@H]21 [doxycycline]
α-Syn levels of expression (α-Syn): ~25 folds | PI4,5P2 signal (SH-SY5Y cells [1]; FACS after 3 days of doxycycline, shCntrl cells): ~146% | PI4,5P2 levels (SH-SY5Y cells [1]; doxycycline 72 hours, cells not induced set at 100%): 151% | internalization of 568-Tf (SH-SY5Y cells [2]): 133%
